Assay type in all cases: biochemical
Experiment [1] can be described thus: Trolox equivalent antioxidant capacity (TEAC), ABTS. As for the experimental part:
The ABTS could serve as the free radical source. After the mixture reacted in the dark for 12 to 16 hours and generated stably blue-green ABTS, followed by adding 0.25 mL of various concentrations of sample solutions (i.e. pectin solution, PET-pectin solution, BHT solution or Vit. E solution listed in TABLE 2) and reacting for 10 minutes. And then, the light absorbance of those mixtures at 734 nm was detected by the spectrophotometer, and the result was listed in TABLE 4. Each data of TABLE 4 was referred to the mean of samples in at least or more than triplicate. […] E analogue; Sigma, St. Louis, Mo., U.S.A.) standard curve established by using different concentrations of trolox as a reference. The results of TEAC are shown in FIG. 2 and the fourth column of TABLE 4.

Experiment [2] in a line: Reducing power (Prussian blue, OD700 nm). On the procedure:
The reducing power of PET-pectin was determined by using the yield of Prussian blue [ferric ferrocyanide; […] In brief, three-valent […] ion (Fe^3+) of red blood salt (potassium […]; […] And then, the light absorbance of Prussian blue at 700 nm was detected to evaluate the reducing power, in which the higher light absorbance was referred to the stronger reducing power. This EXAMPLE could use the conventional method. The PET-pectin was prepared to various concentrations, each 20 μL aliquot of the sample solutions (i.e. pectin solution, PET-pectin solution, BHT solution or Vit. E solution listed in TABLE 2) was added with 50 μL of 0.2 M phosphate buffer (pH 6.6) containing 1% red blood salt [K3Fe(CN)6], incubated in water bath at 50° C. for 20 minutes and added with 50 μL of 10% trichloroacetic acid (TCA) solution. […] The absorbance at 700 nm is measured by the spectrophotometer and listed in the fifth column of TABLE 4, in which the higher light absorbance is referred to the stronger reducing power. Each data of TABLE 4 is referred to the mean of samples in at least or more than triplicate.

Experiment [3] is described as follows: DPPH radical scavenging activity. On the procedure:
4 mL of sample solutions (i.e. pectin solution, PET-pectin solution, BHT solution or Vit. […] And then, the light absorbance of those mixtures at 517 nm was detected by the spectrophotometer, and their DPPH radical scavenging activities (%) were calculated according to the following formula (I), in which the lower light absorbance was referred to the stronger DPPH radical scavenging activity. Each data of TABLE 4 is referred to the mean of samples in triplicate and the result is listed in the third column of TABLE 4. [formula]

This is an account of results in US9113650B2, “Pectic enzyme treated pectin, method of producing the same and application thereof” (NATIONAL PINGTUNG UNIVERSITY OF SCIENCE AND TECHNOLOGY, priority 2011, dated 2015).

Marks after values point to notes of the source that are not given here.

As for `Cc1cc(C(C)(C)C)c(O)c(C(C)(C)C)c1` [Butylated hydroxytoluene (BHT), Butylated hydroxytoluene], the “TEAC (mM Trolox)” value in experiment [1] (concentration 0.01 mg/mL) was 0.4 ± 0.0^d mM Trolox; in experiment [1] (concentration 0.10 mg/mL), 1.3 ± 0.2^c mM Trolox. Also, the “Reducing Power (OD700 nm)” value was 0.5 ± 0.0^d OD700 nm in experiment [2] (concentration 0.01 mg/mL) and 1.7 ± 0.1^b OD700 nm in experiment [2] (concentration 0.10 mg/mL). Further, the “DPPH radical scavenging activity(%)” value is 5.2 ± 0.4^e % in experiment [3] (concentration 0.01 mg/mL) and 49.2 ± 2.9^c % in experiment [3] (concentration 0.10 mg/mL).
`Cc1c(C)c2c(c(C)c1O)CC[C@@](C)(CCC[C@H](C)CCC[C@H](C)CCCC(C)C)O2` [α-tocopherol (Vit. E), α-tocopherol]: the “TEAC (mM Trolox)” value is recorded as 0.5 ± 0.0^d mM Trolox in experiment [1] (concentration 0.01 mg/mL) and 3.5 ± 0.1^b mM Trolox in experiment [1] (concentration 0.10 mg/mL). Also, the “Reducing Power (OD700 nm)” value in experiment [2] (concentration 0.01 mg/mL) is 0.6 ± 0.0^d OD700 nm; in experiment [2] (concentration 0.10 mg/mL) it was 2.5 ± 0.0^a OD700 nm. Besides, the “DPPH radical scavenging activity(%)” value in experiment [3] (concentration 0.01 mg/mL) is listed as 46.1 ± 0.4^d %; in experiment [3] (concentration 0.10 mg/mL), 96.8 ± 0.5^a %.
